# Measurements: the supplement of paper PMC10307832
# What was measured:
# Assay in all cases: relative viability (nuclei count vs DMSO), 5 days (fraction); higher = more cells survive
# QS11 + Palbociclib = compound: C1CC2=C(C1)C=C(C=C2)OC3=NC(=C4C(=N3)N(C=N4)CC5=CC=C(C=C5)C6=CC=CC=C6)N[C@@H](CC7=CC=CC=C7)CO [QS11] + CC(=O)c1c(C)c2cnc(Nc3ccc(N4CCNCC4)cn3)nc2n(C2CCCC2)c1=O [Palbociclib] (partner 0.5 µM)
# In short: (§1)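 Lung cancer cell lines in 1536-well plates were dosed by pin tool the day after seeding, either with one drug alone or with a fixed anchor-drug dose plus five library-drug doses (not always all listed) in √10 steps. After 5 days, cells were fixed and their nuclei stained in one step (final 0.05% Triton X-100, 1% formaldehyde, 1 ug/ml Hoechst), then counted on 4× images. Relative viability is the nuclei count in treated wells divided by that in vehicle wells. Values are medians of duplicate plates.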
# QS11 + Pictilisib = compound: C1CC2=C(C1)C=C(C=C2)OC3=NC(=C4C(=N3)N(C=N4)CC5=CC=C(C=C5)C6=CC=CC=C6)N[C@@H](CC7=CC=CC=C7)CO [QS11] + CS(=O)(=O)N1CCN(Cc2cc3nc(-c4cccc5[nH]ncc45)nc(N4CCOCC4)c3s2)CC1 [Pictilisib] (partner 1 µM)
# In short: as §1
# AZ628 + Lapatinib = compound: CC1=C(C=C(C=C1)NC(=O)C2=CC(=CC=C2)C(C)(C)C#N)NC3=CC4=C(C=C3)N=CN(C4=O)C [AZ628] + CS(=O)(=O)CCNCc1ccc(-c2ccc3ncnc(Nc4ccc(OCc5cccc(F)c5)c(Cl)c4)c3c2)o1 [Lapatinib] (partner 2 µM)
# In short: as §1
# AZ628 + Olaparib = compound: CC1=C(C=C(C=C1)NC(=O)C2=CC(=CC=C2)C(C)(C)C#N)NC3=CC4=C(C=C3)N=CN(C4=O)C [AZ628] + O=C(c1cc(Cc2n[nH]c(=O)c3ccccc23)ccc1F)N1CCN(C(=O)C2CC2)CC1 [Olaparib] (partner 8 µM)
# In short: as §1
cell line,measurement,setting,value
NCI-H2126,relative viability,QS11 + Palbociclib; first compound 0.08 µM,0.345
same,relative viability,QS11 + Palbociclib; first compound 0.253 µM,0.381
same,relative viability,QS11 + Palbociclib; first compound 0.8 µM,0.341
same,relative viability,QS11 + Palbociclib; first compound 2.53 µM,0.343
same,relative viability,QS11 + Palbociclib; first compound 8 µM,0.304
same,relative viability,QS11 + Pictilisib; first compound 0.08 µM,0.489
same,relative viability,QS11 + Pictilisib; first compound 0.253 µM,0.444
same,relative viability,QS11 + Pictilisib; first compound 0.8 µM,0.503
same,relative viability,QS11 + Pictilisib; first compound 2.53 µM,0.501
same,relative viability,QS11 + Pictilisib; first compound 8 µM,0.476
same,relative viability,AZ628 + Lapatinib; first compound 0.08 µM,0.758
same,relative viability,AZ628 + Lapatinib; first compound 0.253 µM,0.857
same,relative viability,AZ628 + Lapatinib; first compound 0.8 µM,0.834
same,relative viability,AZ628 + Lapatinib; first compound 2.53 µM,0.752
same,relative viability,AZ628 + Lapatinib; first compound 8 µM,0.89
same,relative viability,AZ628 + Olaparib; first compound 0.08 µM,0.932
same,relative viability,AZ628 + Olaparib; first compound 0.253 µM,0.875
same,relative viability,AZ628 + Olaparib; first compound 0.8 µM,0.874
same,relative viability,AZ628 + Olaparib; first compound 2.53 µM,0.935
same,relative viability,AZ628 + Olaparib; first compound 8 µM,0.972
EMC-BAC-2,relative viability,QS11 + Palbociclib; first compound 0.08 µM,0.515
same,relative viability,QS11 + Palbociclib; first compound 0.253 µM,0.545
same,relative viability,QS11 + Palbociclib; first compound 0.8 µM,0.43
same,relative viability,QS11 + Palbociclib; first compound 2.53 µM,0.443
same,relative viability,QS11 + Palbociclib; first compound 8 µM,0.406
same,relative viability,QS11 + Pictilisib; first compound 0.08 µM,0.535
same,relative viability,QS11 + Pictilisib; first compound 0.253 µM,0.486
same,relative viability,QS11 + Pictilisib; first compound 0.8 µM,0.569
same,relative viability,QS11 + Pictilisib; first compound 2.53 µM,0.604
same,relative viability,QS11 + Pictilisib; first compound 8 µM,0.442
same,relative viability,AZ628 + Lapatinib; first compound 0.08 µM,0.9
same,relative viability,AZ628 + Lapatinib; first compound 0.253 µM,0.853
same,relative viability,AZ628 + Lapatinib; first compound 0.8 µM,0.817
same,relative viability,AZ628 + Lapatinib; first compound 2.53 µM,0.844
same,relative viability,AZ628 + Lapatinib; first compound 8 µM,0.933
same,relative viability,AZ628 + Olaparib; first compound 0.08 µM,0.566
same,relative viability,AZ628 + Olaparib; first compound 0.253 µM,0.581
same,relative viability,AZ628 + Olaparib; first compound 0.8 µM,0.612
same,relative viability,AZ628 + Olaparib; first compound 2.53 µM,0.558
same,relative viability,AZ628 + Olaparib; first compound 8 µM,0.746
H3255,relative viability,QS11 + Palbociclib; first compound 0.08 µM,0.327
same,relative viability,QS11 + Palbociclib; first compound 0.253 µM,0.363
same,relative viability,QS11 + Palbociclib; first compound 0.8 µM,0.301
same,relative viability,QS11 + Palbociclib; first compound 2.53 µM,0.31
same,relative viability,QS11 + Palbociclib; first compound 8 µM,0.298
same,relative viability,QS11 + Pictilisib; first compound 0.08 µM,0.37
same,relative viability,QS11 + Pictilisib; first compound 0.253 µM,0.523
same,relative viability,QS11 + Pictilisib; first compound 2.53 µM,0.541
same,relative viability,QS11 + Pictilisib; first compound 8 µM,0.537
same,relative viability,AZ628 + Lapatinib; first compound 0.08 µM,0.258
same,relative viability,AZ628 + Lapatinib; first compound 0.253 µM,0.256
same,relative viability,AZ628 + Lapatinib; first compound 0.8 µM,0.292
same,relative viability,AZ628 + Lapatinib; first compound 2.53 µM,0.269
same,relative viability,AZ628 + Lapatinib; first compound 8 µM,0.251
same,relative viability,AZ628 + Olaparib; first compound 0.08 µM,0.561
same,relative viability,AZ628 + Olaparib; first compound 0.253 µM,0.557
same,relative viability,AZ628 + Olaparib; first compound 0.8 µM,0.596
same,relative viability,AZ628 + Olaparib; first compound 2.53 µM,0.611
same,relative viability,AZ628 + Olaparib; first compound 8 µM,0.427
NCI-H838,relative viability,QS11 + Palbociclib; first compound 0.08 µM,0.213
same,relative viability,QS11 + Palbociclib; first compound 0.253 µM,0.187
same,relative viability,QS11 + Palbociclib; first compound 0.8 µM,0.191
same,relative viability,QS11 + Palbociclib; first compound 2.53 µM,0.223
same,relative viability,QS11 + Palbociclib; first compound 8 µM,0.213
same,relative viability,QS11 + Pictilisib; first compound 0.08 µM,0.399
same,relative viability,QS11 + Pictilisib; first compound 0.253 µM,0.388
same,relative viability,QS11 + Pictilisib; first compound 0.8 µM,0.394
same,relative viability,QS11 + Pictilisib; first compound 2.53 µM,0.382
same,relative viability,QS11 + Pictilisib; first compound 8 µM,0.476
same,relative viability,AZ628 + Lapatinib; first compound 0.08 µM,1.05
same,relative viability,AZ628 + Lapatinib; first compound 0.253 µM,0.992
same,relative viability,AZ628 + Lapatinib; first compound 0.8 µM,0.572
same,relative viability,AZ628 + Lapatinib; first compound 2.53 µM,0.956
same,relative viability,AZ628 + Lapatinib; first compound 8 µM,1.04
same,relative viability,AZ628 + Olaparib; first compound 0.08 µM,0.765
same,relative viability,AZ628 + Olaparib; first compound 0.253 µM,0.821
same,relative viability,AZ628 + Olaparib; first compound 0.8 µM,0.713
same,relative viability,AZ628 + Olaparib; first compound 2.53 µM,0.727
same,relative viability,AZ628 + Olaparib; first compound 8 µM,0.623
NCI-H2009,relative viability,QS11 + Palbociclib; first compound 0.08 µM,0.203
same,relative viability,QS11 + Palbociclib; first compound 0.253 µM,0.233
same,relative viability,QS11 + Palbociclib; first compound 0.8 µM,0.209
same,relative viability,QS11 + Palbociclib; first compound 2.53 µM,0.181
same,relative viability,QS11 + Palbociclib; first compound 8 µM,0.17
same,relative viability,QS11 + Pictilisib; first compound 0.08 µM,0.726
same,relative viability,QS11 + Pictilisib; first compound 0.253 µM,0.776
same,relative viability,QS11 + Pictilisib; first compound 0.8 µM,0.747
same,relative viability,QS11 + Pictilisib; first compound 2.53 µM,0.711
same,relative viability,QS11 + Pictilisib; first compound 8 µM,0.626
same,relative viability,AZ628 + Lapatinib; first compound 0.08 µM,0.548
same,relative viability,AZ628 + Lapatinib; first compound 0.253 µM,0.799
same,relative viability,AZ628 + Lapatinib; first compound 0.8 µM,0.469
same,relative viability,AZ628 + Lapatinib; first compound 2.53 µM,0.715
same,relative viability,AZ628 + Lapatinib; first compound 8 µM,0.294
same,relative viability,AZ628 + Olaparib; first compound 0.08 µM,0.711
same,relative viability,AZ628 + Olaparib; first compound 0.253 µM,0.778
same,relative viability,AZ628 + Olaparib; first compound 0.8 µM,0.862
same,relative viability,AZ628 + Olaparib; first compound 2.53 µM,0.789
same,relative viability,AZ628 + Olaparib; first compound 8 µM,0.461
HCC-15,relative viability,QS11 + Palbociclib; first compound 0.08 µM,0.765
same,relative viability,QS11 + Palbociclib; first compound 0.253 µM,0.808
same,relative viability,QS11 + Palbociclib; first compound 0.8 µM,0.579
same,relative viability,QS11 + Palbociclib; first compound 2.53 µM,0.701
same,relative viability,QS11 + Palbociclib; first compound 8 µM,0.542
same,relative viability,QS11 + Pictilisib; first compound 0.08 µM,0.732
same,relative viability,QS11 + Pictilisib; first compound 0.253 µM,0.868
same,relative viability,QS11 + Pictilisib; first compound 2.53 µM,0.816
same,relative viability,QS11 + Pictilisib; first compound 8 µM,0.719
same,relative viability,AZ628 + Lapatinib; first compound 0.08 µM,0.949
same,relative viability,AZ628 + Lapatinib; first compound 0.253 µM,0.808
same,relative viability,AZ628 + Lapatinib; first compound 0.8 µM,0.713
same,relative viability,AZ628 + Lapatinib; first compound 2.53 µM,0.724
same,relative viability,AZ628 + Lapatinib; first compound 8 µM,0.558
same,relative viability,AZ628 + Olaparib; first compound 0.08 µM,0.712
same,relative viability,AZ628 + Olaparib; first compound 0.253 µM,0.747
same,relative viability,AZ628 + Olaparib; first compound 0.8 µM,0.737
same,relative viability,AZ628 + Olaparib; first compound 2.53 µM,0.738
same,relative viability,AZ628 + Olaparib; first compound 8 µM,0.53
NCI-H1395,relative viability,QS11 + Palbociclib; first compound 0.08 µM,0.596
same,relative viability,QS11 + Palbociclib; first compound 0.253 µM,0.654
same,relative viability,QS11 + Palbociclib; first compound 0.8 µM,0.628
same,relative viability,QS11 + Palbociclib; first compound 2.53 µM,0.664
same,relative viability,QS11 + Palbociclib; first compound 8 µM,0.666
same,relative viability,QS11 + Pictilisib; first compound 0.253 µM,0.614
same,relative viability,QS11 + Pictilisib; first compound 0.8 µM,0.772
same,relative viability,QS11 + Pictilisib; first compound 2.53 µM,0.645
same,relative viability,QS11 + Pictilisib; first compound 8 µM,0.619
same,relative viability,AZ628 + Lapatinib; first compound 0.08 µM,1.04
same,relative viability,AZ628 + Lapatinib; first compound 0.253 µM,1
same,relative viability,AZ628 + Lapatinib; first compound 0.8 µM,0.942
same,relative viability,AZ628 + Lapatinib; first compound 2.53 µM,0.933
same,relative viability,AZ628 + Lapatinib; first compound 8 µM,0.916
same,relative viability,AZ628 + Olaparib; first compound 0.08 µM,0.478
same,relative viability,AZ628 + Olaparib; first compound 0.253 µM,0.458
same,relative viability,AZ628 + Olaparib; first compound 0.8 µM,0.443
same,relative viability,AZ628 + Olaparib; first compound 2.53 µM,0.461
same,relative viability,AZ628 + Olaparib; first compound 8 µM,0.447
CAL-12T,relative viability,QS11 + Palbociclib; first compound 0.08 µM,0.431
same,relative viability,QS11 + Palbociclib; first compound 0.253 µM,0.568
same,relative viability,QS11 + Palbociclib; first compound 0.8 µM,0.409
same,relative viability,QS11 + Palbociclib; first compound 2.53 µM,0.499
same,relative viability,QS11 + Palbociclib; first compound 8 µM,0.264
same,relative viability,QS11 + Pictilisib; first compound 0.08 µM,0.446
same,relative viability,QS11 + Pictilisib; first compound 0.253 µM,0.412
same,relative viability,QS11 + Pictilisib; first compound 0.8 µM,0.665
same,relative viability,QS11 + Pictilisib; first compound 2.53 µM,0.314
same,relative viability,QS11 + Pictilisib; first compound 8 µM,0.38
same,relative viability,AZ628 + Lapatinib; first compound 0.08 µM,0.884
same,relative viability,AZ628 + Lapatinib; first compound 0.8 µM,0.599
same,relative viability,AZ628 + Lapatinib; first compound 2.53 µM,0.616
same,relative viability,AZ628 + Lapatinib; first compound 8 µM,0.573
same,relative viability,AZ628 + Olaparib; first compound 0.08 µM,0.713
same,relative viability,AZ628 + Olaparib; first compound 0.253 µM,0.68
same,relative viability,AZ628 + Olaparib; first compound 0.8 µM,0.781
same,relative viability,AZ628 + Olaparib; first compound 2.53 µM,0.637
same,relative viability,AZ628 + Olaparib; first compound 8 µM,0.457
